Test results published in patent US9394284B2, “Compounds act at multiple prostaglandin receptors giving a general anti-inflammatory response” (Allergan, Inc., priority 2010, dated 2016).

Experiments:
Format in all cases: cell-based
[1] = target: T1, human prostanoid FP receptor (Homo sapiens, UniProt P43088); assay: FLIPR Ca2+ signaling antagonist assay, FP receptor stable cell line; conditions: HEK-293 EBNA stable cell line; standard agonist 17-phenyl-PGF2α; NA = inactive (no antagonism or Kb 10,000 nM); PAg, Ag not defined
T1 construct: expressed in transfected cells
T1 sequence (P43088 whole entry): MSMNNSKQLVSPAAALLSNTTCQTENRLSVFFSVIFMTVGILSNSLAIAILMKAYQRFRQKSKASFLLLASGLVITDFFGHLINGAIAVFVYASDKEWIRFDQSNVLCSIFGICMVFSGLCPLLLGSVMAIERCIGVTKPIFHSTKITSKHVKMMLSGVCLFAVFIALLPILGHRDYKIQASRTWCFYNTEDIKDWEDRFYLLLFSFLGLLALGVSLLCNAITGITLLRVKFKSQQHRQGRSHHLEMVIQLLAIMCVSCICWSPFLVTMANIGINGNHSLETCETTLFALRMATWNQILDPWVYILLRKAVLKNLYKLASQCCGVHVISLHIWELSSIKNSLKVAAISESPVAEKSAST
Procedure, shortened: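 Peak Fluo-4 fluorescence (ex 470–495, em 515–575 nm) was read for 3.5 min on FLIPR after agonist injection and expressed relative to 10^−6 M standard agonist. Cells were HEK-293 EBNA transfectants. Test compound was added 4.5 min beforehand at 0.1–30 μM, or 0.067–1 μM for TP.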

[2] = target: T2, human prostanoid EP1 receptor (Homo sapiens, UniProt P34995); assay: FLIPR Ca2+ signaling antagonist assay, EP1 receptor stable cell line; conditions: HEK-293 EBNA stable cell line; standard agonist PGE2; NA = inactive (no antagonism or Kb 10,000 nM); PAg, Ag not defined
T2 construct: expressed in transfected cells
T2 sequence (P34995 1-402): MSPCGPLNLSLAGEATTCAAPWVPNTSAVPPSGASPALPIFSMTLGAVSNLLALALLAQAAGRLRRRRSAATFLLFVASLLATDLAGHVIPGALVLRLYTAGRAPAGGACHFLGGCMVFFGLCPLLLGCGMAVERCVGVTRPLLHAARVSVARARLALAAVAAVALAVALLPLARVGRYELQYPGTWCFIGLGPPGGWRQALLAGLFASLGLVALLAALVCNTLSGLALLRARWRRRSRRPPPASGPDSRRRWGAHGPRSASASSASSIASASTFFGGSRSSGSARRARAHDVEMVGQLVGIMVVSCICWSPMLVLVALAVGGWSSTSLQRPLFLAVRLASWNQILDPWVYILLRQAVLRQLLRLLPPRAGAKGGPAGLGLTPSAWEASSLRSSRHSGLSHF
Procedure, shortened: (§1)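 HEK-293 EBNA cells stably expressing receptor (EP3 co-expressed with chimeric Gqi; EP1, IP, TP without exogenous G protein), Fluo-4 loaded, read on FLIPR at 37° C. Antagonist added 4.5 min before standard agonist (EP1/EP3 PGE2, IP cicaprost 10^−11–10^−5 M; TP U-46619 10^−12–10^−6 M); antagonist 0.1–30 μM, TP 0.067–1 μM; peak fluorescence relative to 10^−6 M agonist.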

[3] = target: T3, human prostanoid IP receptor (Homo sapiens, UniProt P43119); assay: FLIPR Ca2+ signaling antagonist assay, IP receptor stable cell line; conditions: HEK-293 EBNA stable cell line; standard agonist Cicaprost; NA = inactive (no antagonism or Kb 10,000 nM); PAg, Ag not defined
T3 construct: expressed in transfected cells
T3 sequence (P43119 whole entry): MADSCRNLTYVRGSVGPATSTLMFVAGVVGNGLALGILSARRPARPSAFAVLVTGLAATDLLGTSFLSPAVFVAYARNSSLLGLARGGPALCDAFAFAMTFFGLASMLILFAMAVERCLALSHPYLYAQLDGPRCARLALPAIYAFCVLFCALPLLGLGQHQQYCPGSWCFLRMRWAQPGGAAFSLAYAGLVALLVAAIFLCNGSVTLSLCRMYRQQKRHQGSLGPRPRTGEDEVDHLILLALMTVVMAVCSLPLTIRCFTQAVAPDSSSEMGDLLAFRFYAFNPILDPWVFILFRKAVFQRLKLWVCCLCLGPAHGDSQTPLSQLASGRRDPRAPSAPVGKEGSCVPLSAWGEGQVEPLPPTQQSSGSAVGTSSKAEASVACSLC
Procedure, shortened: as §1

[4] = target: T4, human prostanoid TP receptor (Homo sapiens, UniProt P21731); assay: FLIPR Ca2+ signaling antagonist assay, TP receptor stable cell line; conditions: HEK-293 EBNA stable cell line; standard agonist U-46619; NA = inactive (no antagonism or Kb 10,000 nM); PAg, Ag not defined
T4 construct: expressed in transfected cells
T4 sequence (P21731 1-343): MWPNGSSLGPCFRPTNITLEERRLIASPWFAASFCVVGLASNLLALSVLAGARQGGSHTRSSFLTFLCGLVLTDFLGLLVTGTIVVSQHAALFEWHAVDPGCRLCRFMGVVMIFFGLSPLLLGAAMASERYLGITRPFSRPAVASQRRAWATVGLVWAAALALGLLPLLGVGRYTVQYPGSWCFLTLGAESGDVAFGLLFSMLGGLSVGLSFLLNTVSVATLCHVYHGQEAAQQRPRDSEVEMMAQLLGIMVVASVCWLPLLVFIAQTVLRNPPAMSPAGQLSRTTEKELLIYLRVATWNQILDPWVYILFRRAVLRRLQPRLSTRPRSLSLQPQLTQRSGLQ
Procedure, shortened: as §1

Kb [1]	Kb [2]	Kb [3]	Kb [4]	IP (FLIPR) Kb [3]	TP (FLIPR) Kb [4]	EP1 (FLIPR) Kb [2]	Compound	FP (FLIPR) Kb [1]
100 nM	30 nM	8800 nM	10 nM				Cc1cc(CCC(=O)O)nn1Cc1cc(Br)ccc1OCC1(C(F)(F)F)CCC1 [Example 13, 3-[1-(5-Bromo-2-(1-trifluoromethylcyclobutylmethoxy)-benzyl)-5-methyl-1H-pyrazol-3-yl]-propionic acid]	
110 nM	100 nM	3700 nM	20 nM				Cc1cc(CCC(=O)O)nn1Cc1cc(Cl)ccc1OCC(C)(C)C [Example 35, 3-[1-(5-Chloro-2-(2,2-dimethylropoxy)benzyl)-5-methyl-1H-pyrazol-3-yl]-propionic acid]	
30 nM	5 nM			PAg	PAg		Cc1cc(CCC(=O)O)nn1Cc1cc(C(F)(F)F)ccc1OCc1ccc(Cl)cc1 [Example 52, 3-[1-[2-(4-Chloro-benzyloxy)-5-trifluoromethyl-benzyl]-5-methyl-1H-pyrazol-3-yl]-propionic acid]	
400 nM	6 nM	800 nM	2 nM				Cc1cc(CCC(=O)NS(=O)(=O)C(F)(F)F)nn1Cc1cc(Cl)ccc1OCC1CCCC1 [Example 43, N-(3-[1-(5-Chloro-2-cyclopentylmethoxybenzyl)-5-methyl-1H-pyrazol-3-yl]-propionyl)C,C,C-trifluoromethanesulfon amide]	
50 nM	6 nM	1600 nM	2 nM				Cc1cc(CCC(=O)O)nn1Cc1cc(Cl)ccc1C#CC1CCCC1 [Example 73, 3-{1-[5-Chloro-2-cyclopentylethynyl-benzyl]-5-methyl-1H-pyrazol-3-yl}-propionic acid]	
360 nM	200 nM	720 nM	40 nM				Cc1cc(CCC(=O)O)nn1Cc1cc(Cl)ccc1OCCCC(C)C [Example 40, 3-[1-(5-Chloro-2-(4-methylpentyloxy)benzyl)-5-methyl-1H-pyrazol-3-yl]-propionic acid]	
90 nM		400 nM			PAg	PAg	Cc1cc(CCC(=O)NS(=O)(=O)C(F)(F)F)nn1Cc1cc(Cl)ccc1OCc1ccc(Cl)cc1Cl [Example 27, N-(3-[1-(5-Chloro-2-(2,4-dichlorobenzyloxy)benzyl)-5-methyl-1H-pyrazol-3-yl]-propionyl)C,C,C-trifluoromethanesulfonamide]	
1500 nM	60 nM	1900 nM	12 nM				Cc1cc(CCC(=O)NS(=O)(=O)C(F)(F)F)nn1Cc1cc(Cl)ccc1CCC1CCCC1 [Example 75]	
400 nM	380 nM	1800 nM	10 nM				CCCCC(CC)COc1ccc(Br)cc1Cn1nc(CCC(=O)O)cc1C (centres unmarked) [Example 6, 3-[1-(5-Bromo-2-(2-ethyl-hexyloxy)-benzyl)-5-methyl-1H-pyrazol-3-yl]-propionic acid]	
140 nM	3 nM	1000 nM			PAg		Cc1cc(CCC(=O)O)nn1Cc1cc(Cl)ccc1OCc1ccc(Cl)cc1Cl [Example 26, 3-[1-(5-Chloro-2-(2,4-dichlorobenzyloxy)benzyl)-5-methyl-1H-pyrazol-3-yl]-propionic acid]	
200 nM	50 nM	3100 nM	8 nM				Cc1cc(CC(C)(C)C(=O)O)nn1Cc1cc(Br)ccc1OCC1CCCC1 [Example 71, 3-{1-[5-Bromo-2-(2-cyclopentylmethoxy)-benzyl]-5-methyl-1H-pyrazol-3-yl}-2,2-dimethyl-propionic acid]	
800 nM	50 nM	1000 nM	30 nM				Cc1cc(CCC(=O)NS(=O)(=O)c2ccccc2)nn1Cc1cc(Cl)ccc1OCc1ccc(Cl)cc1 [Example 24, N-(3-[1-(5-Chloro-2-(4-chlorobenzyloxy)benzyl)-5-methyl-1H-pyrazol-3-yl]-propionyl)benzenesulfonamide]	
20 nM	15 nM			PAg	Ag		Cc1cc(CCC(=O)O)nn1Cc1cc(OC(F)(F)F)ccc1OCc1ccc(Cl)cc1 [Example 51, 3-[1-[2-(4-Chloro-benzyloxy)-5-trifluoromethoxy-benzyl]-5-methyl-1H-pyrazol-3-yl]-propionic acid]	
90 nM	35 nM	1500 nM	20 nM				Cc1cc(CCC(=O)O)nn1Cc1cc(OC(F)(F)F)ccc1OCC1CCCC1 [Example 50, 3-[1-(2-Cyclopentylmethoxy-5-trifluoromethoxy-benzyl)-5-methyl-1H-pyrazol-3-yl]-propionic acid]	
90 nM	40 nM	1700 nM	1 nM				CCCC(C)COc1ccc(Br)cc1Cn1nc(CCC(=O)O)cc1C (centres unmarked) [Example 8, 3-[1-(5-Bromo-2-(2-methyl-pentyloxy)-benzyl)-5-methyl-1H-pyrazol-3-yl]-propionic acid]	
400 nM	6 nM	7900 nM	< 1 nM				Cc1cc(CCC(=O)NS(=O)(=O)CC(F)(F)F)nn1Cc1cc(Cl)ccc1OCc1ccc(Cl)cc1 [Example 25, 2,2,2-trifluoroethanesulfonic acid-(3-[1-(5-Chloro-2-(4-chlorobenzyloxy)benzyl)-5-methyl-1H-pyrazol-3-yl]-propionyl)amide]	

Compound	Kb [1]	Kb [2]	Kb [3]	Kb [4]	IP (FLIPR) Kb [3]	TP (FLIPR) Kb [4]	EP1 (FLIPR) Kb [2]	FP (FLIPR) Kb [1]
CCC(CC)COc1ccc(Cl)cc1Cn1nc(CC(C)C(=O)O)cc1C (racemic) [Example 68, 3-{1-[5-Chloro-2-(2-ethyl-butoxy)-benzyl]-5-methyl-1H-pyrazol-3-yl}-2-methyl-propionic acid]	400 nM	70 nM	5700 nM	16 nM				
CCC(CC)COc1ccc(Br)cc1Cn1nc(CCC(=O)O)cc1C(F)(F)F [Example 58, 3-{1-[5-Bromo-2-(2-ethyl-butoxy)-benzyl]-5-trifluororomethyl-1H-pyrazol-3-yl}-propionic acid]		370 nM		150 nM	PAg			PAg
CCCc1cc(CCC(=O)O)nn1Cc1cc(Br)ccc1OCC(CC)CC [Example 56, 3-{1-[5-Bromo-2-(2-ethyl-butoxy)-benzyl]-5-propyl-1H-pyrazol-3-yl}-propionic acid]	900 nM	60 nM	1300 nM	70 nM				
CCC(CC)COc1ccc(Br)cc1Cn1nc(CCC(=O)NS(=O)(=O)C(F)(F)F)cc1C [Example 17, N-(3-{1-[5-Bromo-2-(2-ethyl-butoxy)-benzyl]-5-methyl-1H-pyrazol-3-yl}-propionyl)-C,C,C-trifluoro-methanesulfonamide]	400 nM	15 nM	2700 nM	< 1 nM				
Cc1cc(CCC(=O)NS(=O)(=O)C(F)(F)F)nn1Cc1cc(Br)ccc1OCC(C)C [Example 19, N-(3-{1-[5-Bromo-2-isobutoxybenzyl]-5-methyl-1H-pyrazol-3-yl}-propionyl)-C,C,C-trifluoro-methanesulfonamide]	220 nM	14 nM	1400 nM	1 nM				
CCC(CC)COc1ccc(Br)cc1Cn1nc(CCC(=O)O)cc1C(C)C [Example 55, 3-{1-[5-Bromo-2-(2-ethyl-butoxy)-benzyl]-5-isopropyl-1H-pyrazol-3-yl}-propionic acid]	110 nM	60 nM	1100 nM	250 nM				
CCC(CC)COc1ccc(Br)cc1Cn1nc(CCC(=O)O)cc1C(C)(C)C [Example 57, 3-{1-[5-Bromo-2-(2-ethyl-butoxy)-benzyl]-5-tert-butyl-1H-pyrazol-3-yl}-propionic acid]	500 nM	150 nM	800 nM	500 nM				
